The results in this text go back to patent US11643400B2, “MCL-1 inhibitors” (Gilead Sciences, Inc., priority 2018, dated 2023).

The structures appear in SMILES notation. Where two headings read alike, the source gives them in different places.

As a reminder, the EC50 is the concentration needed to bring the measured effect to its halfway point. A word on the IC50: it is the concentration that inhibits the measured activity by half.

In test [1] the test system is SKBR3 Cells. Kind of test: SKBR3 Cell Viability Assay. In kind it is cell-based. Particulars: CellTiter Glo luminescence, read-out: MCL-1 CV SKBR3 EC50. The procedure:
SKBR3 Cell Viability Assay Materials
SKBR3 Cells (ATCC HTB-30) were obtained from ATCC (Manassas, Va.) and cultured in McCoy 5A's medium (ATCC 30-2007)+10% fetal bovine serum (SH30071.03, HyClone, Pittsburgh, Pa.) plus 1× Penicillin-Streptomycin L-glutamine (Corning 30-009-C1, Corning, N.Y.)).
The cell viability assay was conducted in a 384-well tissue culture plate (Grenier 781086, Monroe, N.C.) in a total volume of 70 μL. Test compounds were prepared in 1,000×, serially diluted, and pre-spotted into 384-well tissue culture plate by Echo 555 Liquid Handler (Labcyte Inc., San Jose, Calif.). Seventy pi of 6,000 SKBR3 cells were dispensed into each well of the plate and incubated at 37° C. with 5% CO2 for 72 hours. At the end of incubation, 2× CellTiter Glo (CTG) reagents (1 part buffer with 2 parts substrate) (Promega, Madison, Wis.) were prepared, and the plate and the reagent were equilibrated to room temperature for 30 minutes. CTG reagent was added to each plate by Biomek FX at 20 μL/well with 5 times pipetting and mixing to induce cell lysis. Luminescence was read by Envision multimode reader (PerkinElmer). […] Percent inhibition was calculated as followed: % Inhibition=100%*(Well−Neg)/(Pos−Neg) Neg, negative control, DMSO Pos, positive control, 10 μM Puromycin
(In general: Cellular ATP, detected with luciferase, serves as a proxy for viable cell number.)

Test [2] concerns the target Recombinant human MCL-1 protein (Homo sapiens (Human), UniProt Q07820). Kind of test: MCL-1/Bim Binding AlphaLISA Assay. The settings on record: 6×His-Mcl-1 (171-327) and biotinylated-Bim peptide (51-76). The procedure:
MCL-1/Bim Binding AlphaLISA Assay.
Inhibition of the MCL-1 and Bim interaction was measured in the following AlphaLISA assay.
Recombinant human MCL-1 protein (C-terminal 6×His Tagged Mcl-1 containing residues 171-327) was generated at Gilead Sciences, Inc. (Foster City, Calif.). A biotinylated peptide derived from human Bim (residues 51-76) was purchased from CPC Scientific (Sunnyvale, Calif.). (CPC 834113). AlphaLISA anti-6His-acceptor beads (AL128R), AlphaScreen Streptavidin donor beads (6760002B), and Proxiplate-384 Plus (6008289) were purchased from PerkinElmer.
The AlphaLISA assay was performed in a 384-well Proxiplate in a total volume of 40 μL. The reaction mixture contained 0.0625 nM 6×His-Mcl-1 (171-327), 0.0625 nM biotinylated-Bim peptide, 10 μg/mL AlphaLISA anti-6×His-AlphaLISA acceptor beads, 40 μg/mL AlphaScreen streptavidin donor beads, and serially diluted test compounds in the binding buffer (20 mM Hepes, pH 7.5 (Teknova H1035); 150 mM NaCl (Promega V4221); 0.002% Brij 35 (Thermo Scientific 20150); 1 mM Dithiothreitol (DTT) Solution (Affymetrix 70726); 0.01% BSA (BioLabs B9000S)). 1,000× test compounds were pre-spotted onto 384-well Proxiplate (Labcyte Echo) by Echo 555 Liquid Handler (Labcyte Inc., San Jose, Calif.) followed by incubation of 5 μl Mcl-1 (171-327) for 1 hour. Then 5 μL Bim (51-76) was added and incubated for 2 hours. Five μL AlphaLISA anti-6His-AlphaLISA acceptor beads were then added for 1 hour followed by addition of 5 μL AlphaScreen streptavidin donor beads for 1 hour. The reaction plates were then read on an Envision multimode reader (PerkinElmer) using AlphaScreen settings. […] Percent inhibition was calculated as shown below: % Inhibition=100%*(Well−Neg)/(Pos−Neg) Neg: negative control, DMSO Pos: positive control, no Mcl-1 protein, no biotinylated-Bim peptide
(In Alpha technology, singlet oxygen from a donor bead excites a nearby acceptor bead.)

Chain of Recombinant human MCL-1 protein (Q07820 171-327): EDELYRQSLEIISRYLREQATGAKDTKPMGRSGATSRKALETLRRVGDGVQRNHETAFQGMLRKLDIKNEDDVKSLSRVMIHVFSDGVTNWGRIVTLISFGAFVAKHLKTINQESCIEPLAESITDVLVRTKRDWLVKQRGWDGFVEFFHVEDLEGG

Regarding `CO[C@H]1/C=C/C[C@H](C)C[S@@](=O)(NC(=O)[C@H]2Cc3ccccc3CO2)=NC(=O)c2ccc3c(c2)N(C[C@@H]2CC[C@H]21)C[C@@]1(CCCc2cc(Cl)ccc21)CO3` (single isomer, unassigned) [Example 143], the EC50 in test [1] (72 hours) is 219 nM.
Turning to `CO[C@H]1/C=C/CCC[S@@](=O)(NC(=O)CCc2ccnn2C)=NC(=O)c2ccc3c(c2)N(C[C@@H]2CC[C@H]21)C[C@@]1(CCCc2cc(Cl)ccc21)CO3` [Example 22], the half-maximal effective concentration (EC50) in test [1] (Homo sapiens, SK-BR-3, 72 h) came out at 259 nM.
As to `CO[C@H]1/C=C/CCC[S@@](=O)(NC(=O)NC2(C(F)(F)F)CC2)=NC(=O)c2ccc3c(c2)N(C[C@@H]2CC[C@H]21)C[C@@]1(CCCc2cc(Cl)ccc21)CO3` [Example 32], the EC50 in test [1] (72 hours) is 1480 nM.
On to `CO[C@H]1/C=C/CCC[S@@](=O)(NC(=O)CCc2cocn2)=NC(=O)c2ccc3c(c2)N(C[C@@H]2CC[C@H]21)C[C@@]1(CCCc2cc(Cl)ccc21)CO3` [Example 57], for which the EC50 in test [1] (Homo sapiens, SK-BR-3, 72 h) amounted to 596 nM. Also, the IC50 in test [2] came out at 0.2 nM.
In the case of `CO[C@H]1/C=C/CCC[S@@](=O)(NC(=O)CCC(F)(F)F)=NC(=O)c2ccc3c(c2)N(C[C@@H]2CC[C@H]21)C[C@@]1(CCCc2cc(Cl)ccc21)CO3` [Example 94], in test [1] (72 hours), the EC50 was 902 nM.
The same measure, in the same setting: the value for `CO[C@H]1/C=C/CCC[S@@](=O)(NC(=O)CCCC(F)(F)F)=NC(=O)c2ccc3c(c2)N(C[C@@H]2CC[C@H]21)C[C@@]1(CCCc2cc(Cl)ccc21)CO3` [Example 95] was 1100 nM; that for `CO[C@H]1/C=C/CCC[S@@](=O)(NC(=O)COc2ccccc2)=NC(=O)c2ccc3c(c2)N(C[C@@H]2CC[C@H]21)C[C@@]1(CCCc2cc(Cl)ccc21)CO3` [Example 96] was 604 nM; that for `CO[C@H]1/C=C/CCC[S@@](=O)(NC(=O)CCc2ccccc2)=NC(=O)c2ccc3c(c2)N(C[C@@H]2CC[C@H]21)C[C@@]1(CCCc2cc(Cl)ccc21)CO3` [Example 97] was 788 nM.
`CO[C@H]1/C=C/CCC[S@@](=O)(NC(=O)c2cc3ccccc3n2C)=NC(=O)c2ccc3c(c2)N(C[C@@H]2CC[C@H]21)C[C@@]1(CCCc2cc(Cl)ccc21)CO3` [Example 98]: the EC50 in test [1] (72 hours) is 2190 nM.
Same read-out and setting: the figure for `CO[C@H]1/C=C/CCC[S@@](=O)(NC(=O)CCc2csc(C)n2)=NC(=O)c2ccc3c(c2)N(C[C@@H]2CC[C@H]21)C[C@@]1(CCCc2cc(Cl)ccc21)CO3` [Example 99] is 2090 nM.
Still for that read-out and setting: the figure for `CO[C@H]1/C=C/CCC[S@@](=O)(NC(=O)COc2ccnn2C)=NC(=O)c2ccc3c(c2)N(C[C@@H]2CC[C@H]21)C[C@@]1(CCCc2cc(Cl)ccc21)CO3` [Example 100] is 2260 nM; for `CO[C@H]1/C=C/CCC[S@@](=O)(NC(=O)CCc2ncsc2C)=NC(=O)c2ccc3c(c2)N(C[C@@H]2CC[C@H]21)C[C@@]1(CCCc2cc(Cl)ccc21)CO3` [Example 101] it is 2590 nM; for `CO[C@H]1/C=C/CCC[S@@](=O)(NC(=O)CCc2nnc(C)s2)=NC(=O)c2ccc3c(c2)N(C[C@@H]2CC[C@H]21)C[C@@]1(CCCc2cc(Cl)ccc21)CO3` [Example 102] it is 891 nM.
On the same count and under the same terms, the value for `CO[C@H]1/C=C/CCC[S@@](=O)(NC(=O)CCc2c(C)cnn2C)=NC(=O)c2ccc3c(c2)N(C[C@@H]2CC[C@H]21)C[C@@]1(CCCc2cc(Cl)ccc21)CO3` [Example 103] was 10000 nM; that for `CO[C@H]1/C=C/CCC[S@@](=O)(NC(=O)COC2CCOCC2)=NC(=O)c2ccc3c(c2)N(C[C@@H]2CC[C@H]21)C[C@@]1(CCCc2cc(Cl)ccc21)CO3` [Example 105] was 351 nM.
Take `CO[C@H]1/C=C/C[C@H](C)C[S@@](=O)(NC(=O)NC2CC2)=NC(=O)c2ccc3c(c2)N(C[C@@H]2CC[C@H]21)C[C@@]1(CCCc2cc(Cl)ccc21)CO3` [Example 170]: the EC50 in test [1] (Homo sapiens, SK-BR-3, 72 h) was found to be 210 nM. For the same molecule, the IC50 in test [2] was found to be 0.06 nM.
Consider `CCc1nn(C)cc1C(=O)N[S@@]1(=O)=NC(=O)c2ccc3c(c2)N(C[C@@H]2CC[C@H]2[C@@H](OC)/C=C/C[C@H](C)[C@H]1C)C[C@@]1(CCCc2cc(Cl)ccc21)CO3` [Example 188], for which, in test [1] (Homo sapiens, SK-BR-3, 72 h), the EC50 is 78.3 nM. For the same molecule, in test [2], the IC50 came out at 0.069 nM.
Turning to `CCN(CC)C(=O)OC1CN(C(=O)N[S@@]2(=O)=NC(=O)c3ccc4c(c3)N(C[C@@H]3CC[C@H]3[C@@H](OC)/C=C/C[C@H](C)C2)C[C@@]2(CCCc3cc(Cl)ccc32)CO4)C1` [Example 226], in test [1] (72 hours), the concentration giving a half-maximal response (EC50) stood at 71.3 nM.
Still for that read-out and setting: the figure for `CO[C@H]1/C=C/C[C@H](C)C[S@@](=O)(NC(=O)N2CC3(CCO3)C2)=NC(=O)c2ccc3c(c2)N(C[C@@H]2CC[C@H]21)C[C@@]1(CCCc2cc(Cl)ccc21)CO3` [Example 230] is 47.1 nM; for `CO[C@H]1/C=C/C[C@H](C)C[S@@](=O)(NC(=O)N2CC3(CCCO3)C2)=NC(=O)c2ccc3c(c2)N(C[C@@H]2CC[C@H]21)C[C@@]1(CCCc2cc(Cl)ccc21)CO3` [Example 231] it is 40 nM; for `CO[C@H]1/C=C/C[C@H](C)C[S@@](=O)(NC(=O)N2CC(C#N)C2)=NC(=O)c2ccc3c(c2)N(C[C@@H]2CC[C@H]21)C[C@@]1(CCCc2cc(Cl)ccc21)CO3` [Example 233] it is 47.2 nM.
As for `CCOC1CN(C(=O)N[S@@]2(=O)=NC(=O)c3ccc4c(c3)N(C[C@@H]3CC[C@H]3[C@@H](OC)/C=C/C[C@H](C)C2)C[C@@]2(CCCc3cc(Cl)ccc32)CO4)C1` [Example 235], in test [1] (72 hours), the EC50 came to 39.8 nM.
The same measure, in the same setting: the value for `CO[C@H]1/C=C/C[C@H](C)C[S@@](=O)(NC(=O)N2CC(C(C)(C)O)C2)=NC(=O)c2ccc3c(c2)N(C[C@@H]2CC[C@H]21)C[C@@]1(CCCc2cc(Cl)ccc21)CO3` [Example 237] was 121 nM; that for `CCC1CN(C(=O)N[S@@]2(=O)=NC(=O)c3ccc4c(c3)N(C[C@@H]3CC[C@H]3[C@@H](OC)/C=C/C[C@H](C)C2)C[C@@]2(CCCc3cc(Cl)ccc32)CO4)C1` [Example 242] was 84 nM.
On the same count and under the same terms, the figure for `COc1nn(C2CC2)cc1C(=O)N[S@@]1(=O)=NC(=O)c2ccc3c(c2)N(C[C@@H]2CC[C@H]2[C@@H](OC)/C=C/C[C@H](C)C1)C[C@@]1(CCCc2cc(Cl)ccc21)CO3` [Example 262] is 85.8 nM; for `COC1CCN(C(=O)N[S@@]2(=O)=NC(=O)c3ccc4c(c3)N(C[C@@H]3CC[C@H]3[C@@H](OC)/C=C/C[C@H](C)C2)C[C@@]2(CCCc3cc(Cl)ccc32)CO4)CC1` [Example 320] it is 36.6 nM.
Still for that read-out and setting: the figure for `COc1nn(C)cc1C(=O)N[S@@]1(=O)=NC(=O)c2ccc3c(c2)N(C[C@@H]2CC[C@H]2[C@@H](OC(=O)CC(C)C)/C=C/C[C@H](C)C1)C[C@@]1(CCCc2cc(Cl)ccc21)CO3` [Example 381] is 534 nM.
With `COc1nn(C)cc1C(=O)N[S@@]1(=O)=NC(=O)c2ccc3c(c2)N(C[C@@H]2CC[C@H]2[C@@H](OC(=O)OC(C)C)/C=C/C[C@H](C)C1)C[C@@]1(CCCc2cc(Cl)ccc21)CO3` [Example 384], in test [1] (72 hours), the EC50 came out at 154 nM.
For `COc1nn(C)cc1C(=O)N[S@@]1(=O)=NC(=O)c2ccc3c(c2)N(C[C@@H]2CC[C@H]2[C@@H](OC)/C=C/[C@H](OC(=O)c2cn(C)nc2OC)CC1)C[C@@]1(CCCc2cc(Cl)ccc21)CO3` [Example 391], the EC50 in test [1] (Homo sapiens, SK-BR-3, 72 h) was 4560 nM. The IC50 in test [2] is 0.702 nM.
As for `CO[C@H]1/C=C/C[C@H](C)C[S@@](=O)(NC(=O)C2CC(OC(F)F)C2)=NC(=O)c2ccc3c(c2)N(C[C@@H]2CC[C@H]21)C[C@@]1(CCCc2cc(Cl)ccc21)CO3` (stereo partly shown) [Example 431], in test [1] (72 hours), the EC50 came to 233 nM.
